# Source: US11938113B2, “Epigallocathechin gallate solution” (ASSISTANCE PUBLIQUE—HOPITAUX DE PARIS, priority 2017, dated 2024)
# Values joined by “and” are separate entries in the source; they are usually repeats but may differ in a detail not shown here. Equal values may be shown once. Read-outs that look alike come from different tables or passages of the source.
# Key:
# [1] = after 1-h ultra violet irradiation; cited from earlier work
# [2] = at normal condition, in water; cited from earlier work
# [3] = Solubility of EGCG in sucrose solution versus EGCG alone in water; format: physicochemical; details: after 4 hours of dissolution
# Excerpt: The solubility of EGCG in a solution containing 10% by weight of sucrose is compared to that of EGCG alone in water.
# [4] = Stress stability testing (thermal gradient 25 to 135° C., HPLC of residue); format: physicochemical; details: heating 25 to 135° C. at 5° C. per min
# Description: Both solutions were subjected to progressive heating ranging from 25 to 135° C. at a rate of 5° C. per minute. At end of heating, the residues formed from each solution are illustrated in FIG. 2A and are analyzed by high performance liquid chromatography.
# 1 mL of the reference standard suspension and a formulation of the invention disclosed Table 1 before were subjected to a thermal gradient program ranging from 25 to 135° C. at a rate of 5° C. per min. At the end of this exposure, part of each of the residues formed was deposited on a glass slide and the remaining part analyzed by high performance liquid chromatography.
structure (smiles),measurement,setting,value
"O=C(O[C@@H]1Cc2c(O)cc(O)cc2O[C@@H]1c1cc(O)c(O)c(O)c1)c1cc(O)c(O)c(O)c1 [EGCG, Epigallocatechin gallate]",decomposition of EGCG,[1],70%
same,solubility of EGCG,[2],4.6 g/L and 10 mM
same,solubility of EGCG,[3],≤ 5000 µg/mL
same,appearance of residue at the end of heating,[4],black
same,chromatographic analysis of residue (EGCG remaining),[4]; HPLC,practically no more EGCG
